Measured values as given in patent US5215900A, “Microbial transformation of a substituted pyridinone using streptomyces sp. MA6804” (Merck & Co., Inc., priority 1991, dated 1993).

Target: T1, recombinant HIV reverse transcriptase (HIV RTR) (Human immunodeficiency virus type 1 group M subtype B, UniProt P04585)
T1 construct: recombinant HIV reverse transcriptase (HIV RTR)
Experiment: Reverse Transcriptase Assay
Format: biochemical
Experimental: The assay measures the incorporation of tritiated deoxyguanosine monophosphate by recombinant HIV reverse transcriptase (HIV RTR) (or other RT) into acid-precipitable cDNA at the Km values of dGTP and poly r(C).oligo d(G)12-18.
Thirty uL of a reaction mixture containing equal volumes of: 500 mM Tris.HCl (pH 8.2), 300 mM MgCl2, 1200 mM KCl, 10 mM DTT, 400 μg/mL poly r(c).oligo d(G) [prepared by dissolving 1.5 mg (25 U) poly r(C).oligo d(G) in 1.5 ml sterile distilled H2 O and diluting to 400 μg/ml], 0.1 μuCi/μl [^3 H] dGTP, 160 μM dGTP, was added to 10 μl sterile distilled H2 O, 2.5 μl of potential inhibitor. Ten μL of 3.2 nM purified HIV RTR in tubes. The mixture was incubated at 37° C. for 45 minutes.
After incubation was complete, the tubes were cooled in ice for 5 minutes. Ice-cold 13% TCA containing 10 mM NaPPi (200 μl) was added and the mixture incubated on ice for 30 minutes. The precipitated cDNA was removed by filtration using presoaked glass filters [TCA, NaPPi ]. The precipitate was then washed with 1N HCl, 10 mM NaPPi. The filter discs were then counted in a scintillation counter.
Under these conditions [dGTP] and poly r(C).oligo d(G)12-18 each are approximately equal to the appropriate Km value. Approximately 5-6,000 cpm of [^3 H] GMP are incorporated into acid-precipitable material. The RT reaction is concentration-and time-dependent.

Cc1[nH]c(=O)c(NCc2nc3c(C)ccc(C)c3o2)cc1C(C)O (stereo not shown) [compound (I), 3-[(4,7-Dimethylbenzoxazol-2-yl)-methylamino]-5-(1-hydroxyethyl)-6-methyl-2(1H)-pyridinone]
IC50: ~0.43 µM
